Laboratory results from patent publication US5883074A, “Potentiators of antibacterial agents” (priority 1995, dated 1999).

Key:
MRSA strain MRSA76 = experiment: Methicillin potentiation (methicillin MIC reduction), FIG. 1; format: cell-based, Staphylococcus aureus; conditions: potentiator at 0, 5, and 10 μg/ml
Protocol: (§1) The methicillin MIC at 0, 5, and 10 μg/ml of the potentiating molecules is shown. The structures of the two potentiating molecules are also shown. These potentiators were identified by screening by the methods of Examples 1 and 2, and the MIC reduction evaluated by the method of Example 3.
(§2) Compounds which meet the first two criteria for follow-up are evaluated in a standard microdilution assessment of the MIC with methicillin for MRSA. (see Lorian, Antibiotics in Laboratory Medicine, 3rd ed., pp. 72-75 (1991).) In order to be carried further, the MIC of methicillin preferably is reduced in the presence of the potentiator to at most twice the MIC of a susceptible strain for methicillin. (However, that level of reduction is not essential, since in particular circumstances a potentiator which provides a lesser reduction in the MIC can be useful.) In cases where susceptibility breakpoints are not available or the organism is not resistant to the drug whose action is being potentiated, the MIC preferably must be reduced by several twofold dilutions. We describe herein two compounds identified as having methicillin potentiating activity. These two potentiators meet the first three desired pharmacologic criteria as described above: (1) Potentiation of an anti-bacterial agent, (2) Little or no inhibition of the target organisms when used alone, and (3) Ability to reduce the MIC of an antibacterial agent to less than or equal to two times the MIC of an equivalent bacterial strain susceptible to that agent.
(§3) MICs for the compounds were determined in the presence of 0, 5, and 10 μg/ml of each compound. MRSA cells were grown in the presence of 0, 5, and 10 μg/ml test compound and concentrations of methicillin obtained from serial two-fold dilutions starting at 1024 μg/ml to 0.002 μg/ml (This range can be extended or refined as appropriate.) as follows: A fresh inoculum of MRSA cells was grown at 35° C. in Mueller-Hinton Broth (MHB) overnight and then diluted 1/50 in the same medium. After regrowth at 35° C. to an OD600 of 0.2-0.4 (1-2 hrs.), the cells were diluted 1/1000 in MHB. In a microtiter plate, 50 μl of this diluted culture were combined with 50 μl MHB containing 0, 10, or 20 μg/ml test compound to give starting growth conditions of 5×10^5 cfu/ml in MHB, with 0, 5, or 10 μg/ml test compound. The plate was placed in a humidified 35° C. incubator for 24 hours, and cell growth or inhibition was read as turbidity (OD600).

MRSA strain Col [1] = experiment: as above; format: cell-based, Staphylococcus aureus; conditions: potentiator at 0, 5, and 10 μg/ml
Protocol: as §1, §2, §3

MRSA strain Col [2] = experiment: Potentiating effect for 17 antimicrobial agents (MIC reduction), FIG. 2; format: cell-based, Staphylococcus aureus
Protocol: FIG. 2 is a table showing the potentiating effect of one of the potentiating molecules from FIG. 1 for 17 antimicrobial agents in MRSA strain Col. The MIC is shown at 0, 5, and 10 μg/ml of potentiator.
as §3
The procedures used in Examples 1-3 to determine potentiation activity, and MIC reduction have been carried out using larixol acetate as the test compound and various antibacterial agents in place of methicillin. […]

[3] = test system: methicillin sensitive strain Col8A; experiment: Methicillin MIC in methicillin sensitive strain with potentiator, FIG. 1; format: cell-based, Staphylococcus aureus; conditions: potentiator at 0, 5, and 10 μg/ml
MRSA strain Col 2278 = experiment: Imipenem potentiation (MIC reduction), FIG. 4; format: cell-based, Staphylococcus aureus; conditions: compound at 10 μg/ml
Protocol: (§4) FIG. 4 is a table showing the imipenem potentiation effect of the second compound from FIG. 1 at 10 μg/ml in 5 MRSA strains (Col, Col 2278, sa 038, Spain 356, and Spain 195).

MRSA strain Spain 195 = experiment: Imipenem potentiation (MIC reduction), FIG. 4; format: cell-based, Staphylococcus aureus; conditions: compound at 10 μg/ml
Protocol: as §4

MRSA strain Col [4] = experiment: Imipenem potentiation (MIC reduction), FIG. 4; format: cell-based, Staphylococcus aureus; conditions: compound at 10 μg/ml
Protocol: as §4

MRSA [5] = experiment: Specificity: intrinsic antibacterial activity without antibacterial agent; format: cell-based, Staphylococcus aureus; conditions: test compound alone, without methicillin
Protocol: In order to ascertain that the test compound is not primarily responsible for inhibition of growth, MRSA cells are grown in the presence of 5 μg/ml test compound as follows: A fresh inoculum of MRSA cells is grown at 35° C. in Mueller-Hinton Broth (MHB) overnight and then diluted 1/50 in the same medium. After regrowth at 35° C. to an OD600 of 0.2-0.4 (1-2 hrs.), the cells are diluted 1/1000 in MHB. In a microtiter plate, 50 μl of this diluted culture is combined with 50 μl MHB containing 10 μg/ml test compound to give starting growth conditions of 5×10^5 cfu/ml in MHB, with 5 μg/ml test compound. The plate is placed in a humidified 35° C. incubator for 5-24 hours, and cell growth or inhibition is read as turbidity (OD600). To be carried forward to the next step of the potentiator screening assay, the test compound should have little or no intrinsic anti-staphylococcal activity (growth should be at least 75% of the growth of the positive control without methicillin, corrected for background), or that activity should be explicable without indicating the probability of human toxicity.

MRSA [6] = experiment: Potentiation screening assay: methicillin MIC reduction in MRSA; format: cell-based, Staphylococcus aureus; conditions: 0, 5, and 10 μg/ml test compound
Protocol: After regrowth at 35° C. to an OD600 of 0.2-0.4 (1-2 hrs.), the cells are diluted 1/1000 in MHB. […] The plate is placed in a humidified 35° C. incubator for 5-24 hours, and cell growth or inhibition is read as turbidity (OD600). Two positive and one negative controls for growth are cells grown MHB, cells grown in MHB plus 20 μg/ml methicillin alone (without test compound), and uninoculated MHB respectively.
Compounds which meet the first two criteria for follow-up are evaluated in a standard microdilution assessment of the MIC with methicillin for MRSA. (see Lorian, Antibiotics in Laboratory Medicine, 3rd ed., pp. 72-75 (1991).) In order to be carried further, the MIC of methicillin preferably is reduced in the presence of the potentiator to at most twice the MIC of a susceptible strain for methicillin.
as §3, with “In a microtiter plate, 50 μl of this diluted culture were combined with 50 μl MHB containing 0, 10, or 20 μg/ml test compound to give starting growth conditions of 5×10^5 cfu/ml in MHB, with 0, 5, or 10 μg/ml test compound.” left out

MRSA Col cells = experiment: Time-kill curve with methicillin; format: cell-based, Staphylococcus aureus
Protocol: FIG. 3a is a graph of the number of viable MRSA Col cells/ml versus growth time in hours as determined by the method of Example 4. The graph presents the time kill curve for the first potentiating compound from FIG. 1 at 10 μg/ml with methicillin at 20 μg/ml, and curves for controls (drug-free, methicillin only, and potentiator only). Viable cell counts for all controls were greater than 5×10^8 cells/ml at 24 hours, while the viable cell count for methicillin plus potentiator was approximately 5×10^3 cells/ml after 24 hours.
A standard time-kill method (see Eliopolous & Moellering, Ch. 13 in Antibiotics in Laboratory Medicine, 3rd ed., Lorian ed., at pp. 441-444) is used to characterize whether the potentiator-drug combination is bacteriostatic or bactericidal. As controls, normal growth of the pathogen (without drug or potentiator) and the effects of the drug alone and the potentiator alone are assessed using the same inoculum culture as is used in the combination time-kill test. Either bacteriostatic or bactericidal effect should be confirmed for the potentiators to progress to further testing.

Enterococcus faecium = experiment: Ampicillin potentiation screen; format: cell-based; conditions: highly ampicillin-resistant Enterococcus faecium, ampicillin alone
Protocol: The ampicillin potentiation screen is a high-throughput (96 well), whole cell assay in which compounds of unknown pharmacological activity are tested for their ability to induce an ampicillin-susceptible phenotype in highly ampicillin-resistant Enterococcus faecium (MIC of ampicillin>100μg/ml). These highly ampicillin-resistant bacteria are grown in the presence of ampicillin and various test compounds. The concentration of ampicillin used is well below the MIC for the resistant cells, but higher than the MIC for the isogeneic susceptible cells. Therefore, resistant cells can grow in the presence of the ampicillin without test compound, but the growth of susceptible cells is repressed. Growth is assessed after 5-24 hours by turbidity. Compounds are also tested for intrinsic antibacterial activity in the absence of ampicillin. Compounds which repress Enterococcus faecium growth when used together with ampicillin, which show no, or only a little, intrinsic antibacterial activity, are considered potentiators. […]
A fresh inoculum of E. faecium cells are grown at 35° C. in Brain-Heart Infusion Broth (BHI) overnight and then diluted 1/50 in the same medium. […] The plate is placed in a humidified 35° C. incubator for 24 hours, and cell growth or inhibition is read as turbidity (OD600). […]

| Structure (SMILES) | reduction of methicillin MIC (MRSA strain MRSA76) | reduction of methicillin MIC (MRSA strain Col [1]) | MIC reduction of antimicrobial agents (MRSA strain Col [2]; potentiator at 0, 5, and 10 μg/ml, range of β-lactams, including methicillin, cefazolin, and imipenem) | MIC with potentiator relative to MIC of the antibacterial agent in the absence of the potentiator (MRSA strain Col [2]; some β-lactams, larixol acetate as potentiator) | reduction of methicillin MIC [3] | imipenem MIC reduction (MRSA strain Col 2278) | imipenem MIC reduction (MRSA strain Spain 195) | imipenem MIC reduction (MRSA strain Col [4]) | intrinsic antimicrobial activity (MRSA [5]) | effect on the MIC for methicillin (MRSA [6]) | viable cell count, methicillin plus potentiator (MRSA Col cells; potentiator 10 μg/ml with methicillin 20 μg/ml, after 24 hours) | viable cell count, potentiator only (control) (MRSA Col cells; potentiator only, at 24 hours) | MIC (Enterococcus faecium) [µg/mL] |
| --- | --- | --- | --- | --- | --- | --- | --- | --- | --- | --- | --- | --- | --- |
| C=CC(C)(O)CCC1C(=C)CC(OC(C)=O)C2C(C)(C)CCCC12C (stereo not drawn) [larixol acetate] | reducing the methicillin MIC | reducing the methicillin MIC | Significant MIC reduction | less than 10^-3 | absence of a reduction in the MIC | three orders of magnitude | three orders of magnitude | three orders of magnitude | not exhibiting intrinsic antimicrobial activity | reduce the MIC for methicillin |  |  |  |
| COc1ccc2c(c1)CCC1C2CCC2CC(O)CCC21C (stereo not drawn) [HMM-dodecahydrochrysene, 2-hydroxy-8-methoxy-4a-methyl-1,2,3,4,4a,4b,5,6,10b,11,12,12a-dodecahydrochrysene] | reducing the methicillin MIC | reducing the methicillin MIC |  |  | absence of a reduction in the MIC |  |  |  | not exhibiting intrinsic antimicrobial activity | reduce the MIC for methicillin | approximately 5×10^3 cells/ml | greater than 5×10^8 cells/ml |  |
| CC1(C)S[C@@H]2[C@H](NC(=O)[C@H](N)c3ccccc3)C(=O)N2[C@H]1C(=O)O [ampicillin] |  |  |  |  |  |  |  |  |  |  |  |  | > 100 |
